{"source": "patent US20240166630A1", "about": "“INDOLE DERIVATIVES AS SEROTONERGIC AGENTS USEFUL FOR THE TREATMENT OF DISORDERS RELATED THERETO” (Mindset Pharma Inc., priority 2021, published 2024)", "assay": "In vivo pharmacokinetics in male C57BL/6 mice", "parameters": "species or system mouse", "method": "Animals: Male C57BL/6 mice (25-30 g) from Charles River Labs were acclimatized for a minimum of 5 days prior to dosing. Body weights were recorded on the day of dosing.\nFood restriction: Animals dosed p.o. were deprived of food overnight and fed ˜2 h following dosing.\nDosing: Formulations were administered intravenously (i.v.) via the tail vein or orally (p.o.) by gavage with disposable feeding needles.\nSample collection: Serial blood samples was collected via tail snip. Terminal blood samples was collected under isoflurane anesthesia by cardiac puncture.\nSample processing/storage: All blood samples were transferred into K2EDTA tubes on wet ice and centrifuged within 5 min (3200× g for 5 min at 4° C.) to obtain plasma. Plasma was stored at −80° C. until analysis.\nInstrumentation: AB Sciex QTRAP 4000 or 6500 MS/MS system equipped with an LC system with a binary pump, a solvent degasser, a thermostatted column compartment and a multiplate autosampler.\n5. PK Analysis • i. Analysis software: Phoenix® WinNonlin® 8.2 (Pharsight, Certara, Mountainview, CA) • ii. Analysis methods: non-compartmental analysis, linear up/log down trapezoidal rule • iii. PK parameters: C0, t1/2, AUC0-tlast. AUC0-∞, CL, Vss, MRT, tmax(po), Cmax(po), F, as appropriate", "key": {"[1]": {"settings": "9.92 mg/kg i.v., individual animals M10-M12"}, "[2]": {"settings": "9.92 mg/kg p.o., individual animals M13-M15"}, "[3]": {"settings": "9.92 mg/kg s.c., individual animals M16-M18"}}, "note": "Where “and” joins values, the source holds several entries; their conditions need not be identical. Identical values can stand only once. Like-named read-outs stand apart in the source and are kept apart here."}
{"smiles": "[2H]C([2H])(c1c[nH]c2ccccc12)[C@H]1CCCN1C([2H])([2H])[2H]", "note": "[I-B-1, (R)-3-((1-(methyl-d3)pyrrolidin-2-yl)methyl-d2)-1H-indole]", "values": [{"measurement": "AUC0-tlast", "setting": "[1]", "value": "3708 ng·h/mL and 4440 ng·h/mL"}, {"measurement": "AUC(0-inf)", "setting": "[1]", "value": "3709 ng·h/mL and 4441 ng·h/mL"}, {"measurement": "Apparent t1/2", "setting": "[1]", "value": "2.16 h and 2.05 h"}, {"measurement": "C0", "setting": "[1]", "value": "3473 ng/mL and 3356 ng/mL"}, {"measurement": "CL", "setting": "[1]", "value": "2675 mL/h/kg and 2234 mL/h/kg"}, {"measurement": "MRT0-inf", "setting": "[1]", "value": "2.46 h and 2.57 h"}, {"measurement": "Vss", "setting": "[1]", "value": "6590 mL/kg and 5751 mL/kg"}, {"measurement": "F", "setting": "9.92 mg/kg p.o., Mean ± SD", "value": "58.2 ± 18.4", "unit": "%"}, {"measurement": "AUC0-tlast", "setting": "[2]", "value": "2782 ng·h/mL and 2260 ng·h/mL"}, {"measurement": "AUC(0-inf)", "setting": "[2]", "value": 3099, "unit": "ng·h/mL"}, {"measurement": "Cmax", "setting": "[2]", "value": "516 ng/mL and 342 ng/mL"}, {"measurement": "MRT0-inf", "setting": "[2]", "value": 8.54, "unit": "h"}, {"measurement": "tmax", "setting": "[2]", "value": "60 min and 30 min"}, {"measurement": "F", "setting": "9.92 mg/kg p.o., individual animals M13-M15, for M15 AUC0-tlast used", "value": "40.8% and 77.5% and 56.5%"}, {"measurement": "Apparent t1/2", "setting": "9.92 mg/kg p.o., individual animals, estimate may not be accurate", "value": 9.46, "unit": "h"}, {"measurement": "F", "setting": "9.92 mg/kg s.c., Mean ± SD", "value": "67.9 ± 6.24", "unit": "%"}, {"measurement": "AUC0-tlast", "setting": "[3]", "value": "2833 ng·h/mL and 2429 ng·h/mL"}, {"measurement": "AUC(0-inf)", "setting": "[3]", "value": "2834 ng·h/mL and 2431 ng·h/mL"}, {"measurement": "Apparent t1/2", "setting": "[3]", "value": "2.24 h and 2.56 h"}, {"measurement": "Cmax", "setting": "[3]", "value": "1090 ng/mL and 950 ng/mL"}, {"measurement": "F", "setting": "[3]", "value": "72.2% and 70.9% and 60.8%"}, {"measurement": "MRT0-inf", "setting": "[3]", "value": 2.58, "unit": "h"}, {"measurement": "tmax", "setting": "[3]", "value": 30, "unit": "min"}, {"measurement": "clearance", "setting": "male, C57BL/6, mouse, plasma, iv, 9.92 mg/kg, 9.92 mg/kg i.v., Mean ± SD", "value": 41.7, "unit": "mL/min/kg"}, {"measurement": "AUC(0-inf)", "setting": "male, C57BL/6, mouse, plasma, iv, 9.92 mg/kg, 9.92 mg/kg i.v., Mean ± SD, read-out: AUC0-inf", "value": "4000 ± 389", "unit": "ng·h/mL"}, {"measurement": "AUC(0-t)", "setting": "male, C57BL/6, mouse, plasma, iv, 9.92 mg/kg, 9.92 mg/kg i.v., Mean ± SD, read-out: AUC0-tlast", "value": "4000 ± 389", "unit": "ng·h/mL"}, {"measurement": "half-life", "setting": "male, C57BL/6, mouse, plasma, iv, 9.92 mg/kg, 9.92 mg/kg i.v., Mean ± SD, read-out: Apparent t1/2 (converted)", "value": "130 ± 7.62", "unit": "min"}, {"measurement": "C0", "setting": "male, C57BL/6, mouse, plasma, iv, 9.92 mg/kg, 9.92 mg/kg i.v., Mean ± SD, read-out: C0", "value": "3910 ± 868", "unit": "ng/mL"}, {"measurement": "MRT inf", "setting": "male, C57BL/6, mouse, plasma, iv, 9.92 mg/kg, 9.92 mg/kg i.v., Mean ± SD, read-out: MRT0-inf", "value": "2.43 ± 0.16", "unit": "h"}, {"measurement": "Vd", "setting": "male, C57BL/6, mouse, plasma, iv, 9.92 mg/kg, 9.92 mg/kg i.v., Mean ± SD, read-out: Vss", "value": "6.06 ± 0.464", "unit": "L/kg"}, {"measurement": "clearance", "setting": "male, C57BL/6, mouse, plasma, iv, 9.92 mg/kg, 9.92 mg/kg i.v., individual animals M10-M12", "value": 43, "unit": "mL/min/kg"}, {"measurement": "AUC(0-inf)", "setting": "male, C57BL/6, mouse, plasma, iv, 9.92 mg/kg, 9.92 mg/kg i.v., individual animals M10-M12, read-out: AUC0-inf", "value": 3850, "unit": "ng·h/mL"}, {"measurement": "AUC(0-t)", "setting": "male, C57BL/6, mouse, plasma, iv, 9.92 mg/kg, 9.92 mg/kg i.v., individual animals M10-M12, read-out: AUC0-tlast", "value": 3850, "unit": "ng·h/mL"}, {"measurement": "half-life", "setting": "male, C57BL/6, mouse, plasma, iv, 9.92 mg/kg, 9.92 mg/kg i.v., individual animals M10-M12, read-out: Apparent t1/2 (converted)", "value": 138, "unit": "min"}, {"measurement": "C0", "setting": "male, C57BL/6, mouse, plasma, iv, 9.92 mg/kg, 9.92 mg/kg i.v., individual animals M10-M12, read-out: C0", "value": 4910, "unit": "ng/mL"}, {"measurement": "MRT inf", "setting": "male, C57BL/6, mouse, plasma, iv, 9.92 mg/kg, 9.92 mg/kg i.v., individual animals M10-M12, read-out: MRT0-inf", "value": 2.26, "unit": "h"}, {"measurement": "Vd", "setting": "male, C57BL/6, mouse, plasma, iv, 9.92 mg/kg, 9.92 mg/kg i.v., individual animals M10-M12, read-out: Vss", "value": 5.83, "unit": "L/kg"}, {"measurement": "AUC(0-t)", "setting": "male, C57BL/6, mouse, plasma, po, 9.92 mg/kg, 9.92 mg/kg p.o., Mean ± SD, read-out: AUC0-tlast", "value": "2170 ± 665", "unit": "ng·h/mL"}, {"measurement": "Cmax", "setting": "male, C57BL/6, mouse, plasma, po, 9.92 mg/kg, 9.92 mg/kg p.o., Mean ± SD, read-out: Cmax", "value": "389 ± 112", "unit": "ng/mL"}, {"measurement": "tmax", "setting": "male, C57BL/6, mouse, plasma, po, 9.92 mg/kg, 9.92 mg/kg p.o., Mean ± SD, read-out: tmax", "value": 15, "unit": "min"}, {"measurement": "AUC(0-inf)", "setting": "male, C57BL/6, mouse, plasma, po, 9.92 mg/kg, 9.92 mg/kg p.o., individual animals M13-M15, read-out: AUC0-inf", "value": 1630, "unit": "ng·h/mL"}, {"measurement": "AUC(0-t)", "setting": "male, C57BL/6, mouse, plasma, po, 9.92 mg/kg, 9.92 mg/kg p.o., individual animals M13-M15, read-out: AUC0-tlast", "value": 1460, "unit": "ng·h/mL"}, {"measurement": "Cmax", "setting": "male, C57BL/6, mouse, plasma, po, 9.92 mg/kg, 9.92 mg/kg p.o., individual animals M13-M15, read-out: Cmax", "value": 308, "unit": "ng/mL"}, {"measurement": "MRT inf", "setting": "male, C57BL/6, mouse, plasma, po, 9.92 mg/kg, 9.92 mg/kg p.o., individual animals M13-M15, read-out: MRT0-inf", "value": 8.91, "unit": "h"}, {"measurement": "half-life", "setting": "male, C57BL/6, mouse, plasma, po, 9.92 mg/kg, 9.92 mg/kg p.o., individual animals, estimate may not be accurate, read-out: Apparent t1/2 (converted)", "value": 580, "unit": "min"}, {"measurement": "AUC(0-inf)", "setting": "male, C57BL/6, mouse, plasma, po, 9.92 mg/kg, 9.92 mg/kg p.o., mean (n = 2), read-out: AUC0-inf", "value": 2360, "unit": "ng·h/mL"}, {"measurement": "half-life", "setting": "male, C57BL/6, mouse, plasma, po, 9.92 mg/kg, 9.92 mg/kg p.o., mean (n = 2), read-out: Apparent t1/2 (converted)", "value": 574, "unit": "min"}, {"measurement": "MRT inf", "setting": "male, C57BL/6, mouse, plasma, po, 9.92 mg/kg, 9.92 mg/kg p.o., mean (n = 2), read-out: MRT0-inf", "value": 8.72, "unit": "h"}, {"measurement": "AUC(0-inf)", "setting": "male, C57BL/6, mouse, plasma, sc, 9.92 mg/kg, 9.92 mg/kg s.c., Mean ± SD, read-out: AUC0-inf", "value": "2720 ± 249", "unit": "ng·h/mL"}, {"measurement": "AUC(0-t)", "setting": "male, C57BL/6, mouse, plasma, sc, 9.92 mg/kg, 9.92 mg/kg s.c., Mean ± SD, read-out: AUC0-tlast", "value": "2720 ± 250", "unit": "ng·h/mL"}, {"measurement": "half-life", "setting": "male, C57BL/6, mouse, plasma, sc, 9.92 mg/kg, 9.92 mg/kg s.c., Mean ± SD, read-out: Apparent t1/2 (converted)", "value": "138 ± 13.9", "unit": "min"}, {"measurement": "Cmax", "setting": "male, C57BL/6, mouse, plasma, sc, 9.92 mg/kg, 9.92 mg/kg s.c., Mean ± SD, read-out: Cmax", "value": "1240 ± 387", "unit": "ng/mL"}, {"measurement": "MRT inf", "setting": "male, C57BL/6, mouse, plasma, sc, 9.92 mg/kg, 9.92 mg/kg s.c., Mean ± SD, read-out: MRT0-inf", "value": "2.6 ± 0.186", "unit": "h"}, {"measurement": "tmax", "setting": "male, C57BL/6, mouse, plasma, sc, 9.92 mg/kg, 9.92 mg/kg s.c., Mean ± SD, read-out: tmax", "value": 15, "unit": "min"}, {"measurement": "AUC(0-inf)", "setting": "male, C57BL/6, mouse, plasma, sc, 9.92 mg/kg, 9.92 mg/kg s.c., individual animals M16-M18, read-out: AUC0-inf", "value": 2890, "unit": "ng·h/mL"}, {"measurement": "AUC(0-t)", "setting": "male, C57BL/6, mouse, plasma, sc, 9.92 mg/kg, 9.92 mg/kg s.c., individual animals M16-M18, read-out: AUC0-tlast", "value": 2880, "unit": "ng·h/mL"}, {"measurement": "half-life", "setting": "male, C57BL/6, mouse, plasma, sc, 9.92 mg/kg, 9.92 mg/kg s.c., individual animals M16-M18, read-out: Apparent t1/2 (converted)", "value": 126, "unit": "min"}, {"measurement": "Cmax", "setting": "male, C57BL/6, mouse, plasma, sc, 9.92 mg/kg, 9.92 mg/kg s.c., individual animals M16-M18, read-out: Cmax", "value": 1680, "unit": "ng/mL"}, {"measurement": "MRT inf", "setting": "male, C57BL/6, mouse, plasma, sc, 9.92 mg/kg, 9.92 mg/kg s.c., individual animals M16-M18, read-out: MRT0-inf", "value": 2.8, "unit": "h"}, {"measurement": "tmax", "setting": "male, C57BL/6, mouse, plasma, sc, 9.92 mg/kg, 9.92 mg/kg s.c., individual animals M16-M18, read-out: tmax", "value": 15, "unit": "min"}]}
